Tests used:
A498 = assay: panel of 60 human tumor cell lines, growth inhibition (Renal Cancer); conditions: A498
UO-31 = assay: as above; conditions: UO-31
NCI/ADR-RES = assay: panel of 60 human tumor cell lines, growth inhibition (Ovarian Cancer)
RXF 393 = assay: panel of 60 human tumor cell lines, growth inhibition (Renal Cancer); conditions: RXF 393
T-47D = assay: panel of 60 human tumor cell lines, growth inhibition (Breast Cancer); conditions: T-47D
NCI-H522 = assay: panel of 60 human tumor cell lines, growth inhibition (Non-Small Cell Lung Cancer); conditions: NCI-H522
OVCAR-5 = assay: panel of 60 human tumor cell lines, growth inhibition (Ovarian Cancer); conditions: OVCAR-5
HCC-2998 = assay: panel of 60 human tumor cell lines, growth inhibition (Colon Cancer); conditions: HCC-2998
SK-OV-3 = assay: panel of 60 human tumor cell lines, growth inhibition (Ovarian Cancer); conditions: SK-OV-3
SK-MEL-28 = assay: panel of 60 human tumor cell lines, growth inhibition (Melanoma); conditions: SK-MEL-28

C=C1C(=O)O[C@H]2[C@H]1CC/C(COC(=O)N1CCN(C)CC1)=C\CC[C@@]1(C)O[C@@H]21 [JVM 2-44]
Mean Optical Densities (A498; Log10 Concentration −6.0): 2.296
Percent Growth (A498; Log10 Concentration −6.0): 67%
Mean Optical Densities (A498; Log10 Concentration −7.0): 2.301
Percent Growth (A498; Log10 Concentration −7.0): 68%
Mean Optical Densities (A498; Log10 Concentration −8.0): 2.357
Percent Growth (A498; Log10 Concentration −8.0): 74%
GI50 (UO-31): 3.08 µM
TGI (UO-31): 1.54E−5
Mean Optical Densities (UO-31; Log10 Concentration −4.0): 0.127
Percent Growth (UO-31; Log10 Concentration −4.0): −83%
Mean Optical Densities (UO-31; Log10 Concentration −5.0): 0.983
Percent Growth (UO-31; Log10 Concentration −5.0): 19%
Mean Optical Densities (UO-31; Log10 Concentration −6.0): 1.744
Percent Growth (UO-31; Log10 Concentration −6.0): 80%
Mean Optical Densities (UO-31; Log10 Concentration −7.0): 1.737
Percent Growth (UO-31; Log10 Concentration −7.0): 79%
Mean Optical Densities (UO-31; Log10 Concentration −8.0): 1.731
Percent Growth (UO-31; Log10 Concentration −8.0): 79%
GI50 (NCI/ADR-RES): 24.6 µM
TGI (NCI/ADR-RES): >1.00E−4
Mean Optical Densities (NCI/ADR-RES; Log10 Concentration −4.0): 0.606
Percent Growth (NCI/ADR-RES; Log10 Concentration −4.0): 1%
Mean Optical Densities (NCI/ADR-RES; Log10 Concentration −5.0): 1.819
Percent Growth (NCI/ADR-RES; Log10 Concentration −5.0): 82%
Mean Optical Densities (NCI/ADR-RES; Log10 Concentration −6.0): 2.094
Percent Growth (NCI/ADR-RES; Log10 Concentration −6.0): 100%
Mean Optical Densities (NCI/ADR-RES; Log10 Concentration −7.0): 2.049
Percent Growth (NCI/ADR-RES; Log10 Concentration −7.0): 97%
Mean Optical Densities (NCI/ADR-RES; Log10 Concentration −8.0): 2.060
Percent Growth (NCI/ADR-RES; Log10 Concentration −8.0): 98%
GI50 (RXF 393): 2.55 µM
TGI (RXF 393): 8.91E−6
Mean Optical Densities (RXF 393; Log10 Concentration −4.0): 0.329
Percent Growth (RXF 393; Log10 Concentration −4.0): −71%
Mean Optical Densities (RXF 393; Log10 Concentration −5.0): 1.871
Percent Growth (RXF 393; Log10 Concentration −5.0): −5%
Mean Optical Densities (RXF 393; Log10 Concentration −6.0): 1.644
Percent Growth (RXF 393; Log10 Concentration −6.0): 87%
Mean Optical Densities (RXF 393; Log10 Concentration −7.0): 1.692
Percent Growth (RXF 393; Log10 Concentration −7.0): 96%
Mean Optical Densities (RXF 393; Log10 Concentration −8.0): 1.646
Percent Growth (RXF 393; Log10 Concentration −8.0): 88%
GI50 (T-47D): 4.52 µM
TGI (T-47D): 1.94E−5
Mean Optical Densities (T-47D; Log10 Concentration −4.0): 0.323
Percent Growth (T-47D; Log10 Concentration −4.0): −56%
Mean Optical Densities (T-47D; Log10 Concentration −5.0): 0.946
Percent Growth (T-47D; Log10 Concentration −5.0): 23%
Mean Optical Densities (T-47D; Log10 Concentration −6.0): 1.660
Percent Growth (T-47D; Log10 Concentration −6.0): 102%
Mean Optical Densities (T-47D; Log10 Concentration −7.0): 1.593
Percent Growth (T-47D; Log10 Concentration −7.0): 94%
Mean Optical Densities (T-47D; Log10 Concentration −8.0): 1.664
Percent Growth (T-47D; Log10 Concentration −8.0): 102%
GI50 (NCI-H522): 1.54 µM
TGI (NCI-H522): 3.55E−5
Mean Optical Densities (NCI-H522; Log10 Concentration −4.0): 0.194
Percent Growth (NCI-H522; Log10 Concentration −4.0): −78%
Mean Optical Densities (NCI-H522; Log10 Concentration −5.0): 0.338
Percent Growth (NCI-H522; Log10 Concentration −5.0): −62%
Mean Optical Densities (NCI-H522; Log10 Concentration −6.0): 1.747
Percent Growth (NCI-H522; Log10 Concentration −6.0): 76%
Mean Optical Densities (NCI-H522; Log10 Concentration −7.0): 1.925
Percent Growth (NCI-H522; Log10 Concentration −7.0): 92%
Mean Optical Densities (NCI-H522; Log10 Concentration −8.0): 1.900
Percent Growth (NCI-H522; Log10 Concentration −8.0): 89%
GI50 (OVCAR-5): 13.4 µM
TGI (OVCAR-5): 3.03E−5
Mean Optical Densities (OVCAR-5; Log10 Concentration −4.0): 0.201
Percent Growth (OVCAR-5; Log10 Concentration −4.0): −73%
Mean Optical Densities (OVCAR-5; Log10 Concentration −5.0): 1.240
Percent Growth (OVCAR-5; Log10 Concentration −5.0): 68%
Mean Optical Densities (OVCAR-5; Log10 Concentration −6.0): 1.400
Percent Growth (OVCAR-5; Log10 Concentration −6.0): 89%
Mean Optical Densities (OVCAR-5; Log10 Concentration −7.0): 1.404
Percent Growth (OVCAR-5; Log10 Concentration −7.0): 90%
Mean Optical Densities (OVCAR-5; Log10 Concentration −8.0): 1.415
Percent Growth (OVCAR-5; Log10 Concentration −8.0): 91%
GI50 (HCC-2998): 17.5 µM
TGI (HCC-2998): 3.55E−5
Mean Optical Densities (HCC-2998; Log10 Concentration −4.0): 0.178
Percent Growth (HCC-2998; Log10 Concentration −4.0): −73%
Mean Optical Densities (HCC-2998; Log10 Concentration −5.0): 1.871
Percent Growth (HCC-2998; Log10 Concentration −5.0): 90%
Mean Optical Densities (HCC-2998; Log10 Concentration −6.0): 2.049
Percent Growth (HCC-2998; Log10 Concentration −6.0): 103%
Mean Optical Densities (HCC-2998; Log10 Concentration −7.0): 1.999
Percent Growth (HCC-2998; Log10 Concentration −7.0): 99%
Mean Optical Densities (HCC-2998; Log10 Concentration −8.0): 1.968
Percent Growth (HCC-2998; Log10 Concentration −8.0): 97%
GI50 (SK-OV-3): 31.8 µM
TGI (SK-OV-3): >1.00E−4
Mean Optical Densities (SK-OV-3; Log10 Concentration −4.0): 1.032
Percent Growth (SK-OV-3; Log10 Concentration −4.0): 4%
Mean Optical Densities (SK-OV-3; Log10 Concentration −5.0): 1.852
Percent Growth (SK-OV-3; Log10 Concentration −5.0): 96%
Mean Optical Densities (SK-OV-3; Log10 Concentration −6.0): 1.892
Percent Growth (SK-OV-3; Log10 Concentration −6.0): 101%
Mean Optical Densities (SK-OV-3; Log10 Concentration −7.0): 1.808
Percent Growth (SK-OV-3; Log10 Concentration −7.0): 91%
Mean Optical Densities (SK-OV-3; Log10 Concentration −8.0): 1.885
Percent Growth (SK-OV-3; Log10 Concentration −8.0): 100%
GI50 (SK-MEL-28): 7.03 µM
TGI (SK-MEL-28): 2.21E−5
Mean Optical Densities (SK-MEL-28; Log10 Concentration −4.0): 0.108
Percent Growth (SK-MEL-28; Log10 Concentration −4.0): −80%
Mean Optical Densities (SK-MEL-28; Log10 Concentration −5.0): 0.950
Percent Growth (SK-MEL-28; Log10 Concentration −5.0): 42%
Mean Optical Densities (SK-MEL-28; Log10 Concentration −6.0): 1.424
Percent Growth (SK-MEL-28; Log10 Concentration −6.0): 93%
Mean Optical Densities (SK-MEL-28; Log10 Concentration −7.0): 1.424
Percent Growth (SK-MEL-28; Log10 Concentration −7.0): 93%
Mean Optical Densities (SK-MEL-28; Log10 Concentration −8.0): 1.458
Percent Growth (SK-MEL-28; Log10 Concentration −8.0): 96%
